Tested on: Cdr1p ATPase
Assay: Oligomycin sensitive ATPase/NTPase activity of AD1002 plasma membranes
Type: biochemical, C. albicans
Conditions: ratio of inhibitory concentrations Cdr1p/Pdr5p
Experimental: Membrane fractions were isolated from S. cerevisiae AD1002 (▪) or parental AD1-8u^− cells (●). ATPase assays were carried out at 30° C. for 30 min, as described in Materials and methods for Example 2. The oligomycin-sensitive activity was determined as the difference in ATPase activity in the presence and absence of 20 μM oligomycin. […] The results are the means (+/−SD) of four determinations carried out on two membrane preparations.
(B) Inhibition profile with KN20 on the oligomycin-sensitive Cdr1p ATPase activity of plasma membranes from AD1002 minus the oligomycin-sensitive ATPase activity of plasma membranes from the isogenic AD1-8u^− strain.
Yeast were grown in YEPD, pH 5.5 at 30° C. until they reached late-exponential phase of growth (OD600 nm=7), washed twice in ice-cold distilled water, and incubated on ice for 30 min to minimize glucose-stimulated Pma1p activity. Cells were resuspended in homogenising medium (50 mM Tris pH 7.5, 2 mM EDTA and 1 mM phenylmethylsulfonyl fluoride) and disrupted using a Braun Homogeniser. Cell debris and unbroken cells were removed by centrifuging at 2,000×g at 4° C. for 10 min. A crude membrane fraction was isolated from the cell-free supernatant by centrifuging at 30,000×g at 4° C. for 45 min. Plasma membranes were prepared by centrifugation of the supernatant obtained after selective precipitation of mitochondria at pH 5.2 as described previously (Goffeau, A. and Dufour, J. P., 1988). The plasma membranes were resuspended in 10 mM Tris pH 7.0, 0.5 mM EDTA and 20% [v/v] glycerol and stored at −80° C. Protein was determined using a micro-Bradford (Bio-Rad Laboratories, Hercules, Calif. [Bradford, M. M., 1976]) assay with gamma-globulin as standard. Nucleotide triphosphatase activity was measured by incubating the plasma membrane fractions (10 μg) at 30° C. in a final volume of 120 μl containing 6 mM NTP, 7 mM MgSO4 in 59 mM MES-Tris buffer pH 6.0-8.0. To eliminate possible contributions from nonspecific phosphatases, vacuolar, or mitochondrial ATPases, 0.2 mM ammonium molybdate, 50 mM KNO3 and 10 mM NaN3, respectively, were included in assays (Monk B C, et al, 1991). Other ATPase inhibitors (20 μM oligomycin, 20 μM aurovertin B or 100 μM vanadate were added to the reaction where indicated. After 30 min the reaction was stopped by adding 130 μl of a solution containing 1% (w/v) SDS, 0.6 M H2SO4, 1.2% (w/v) ammonium molybdate and 1.6% (w/v) ascorbic acid. Inorganic phosphate released from NTPs was measured at 750 nm after 10 min incubation at room temperature.

## D-octapeptide NH2-Asn-Trp-Trp-Lys-Val-Arg-Arg-Arg-CONH2 with a single 4-methoxy-2,3,6-trimethylbenzenesulphonyl (Mtr) substituent on one tryptophan sidechain; Pdr5p inhibitor [KN20]
  Cdr1p ATPase inhibition concentration relative to Pdr5p ATPase: 2.7 fold
